The target of the assay is T1, Human complement C1s enzyme (Homo sapiens, UniProt P09871).
T1 construct: purified from human serum, Complement Technology, Inc; purchased Complement Technology, Inc; host or cells: human serum
T1 sequence (P09871 438-688 limits assumed): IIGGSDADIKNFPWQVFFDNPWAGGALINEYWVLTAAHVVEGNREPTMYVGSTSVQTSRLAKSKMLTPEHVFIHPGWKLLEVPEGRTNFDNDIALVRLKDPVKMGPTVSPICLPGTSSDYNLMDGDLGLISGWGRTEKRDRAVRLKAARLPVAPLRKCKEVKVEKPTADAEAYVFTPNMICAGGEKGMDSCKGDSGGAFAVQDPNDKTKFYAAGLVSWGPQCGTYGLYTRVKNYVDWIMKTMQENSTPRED
T1 sequence (P09871 16-437 partner limits assumed): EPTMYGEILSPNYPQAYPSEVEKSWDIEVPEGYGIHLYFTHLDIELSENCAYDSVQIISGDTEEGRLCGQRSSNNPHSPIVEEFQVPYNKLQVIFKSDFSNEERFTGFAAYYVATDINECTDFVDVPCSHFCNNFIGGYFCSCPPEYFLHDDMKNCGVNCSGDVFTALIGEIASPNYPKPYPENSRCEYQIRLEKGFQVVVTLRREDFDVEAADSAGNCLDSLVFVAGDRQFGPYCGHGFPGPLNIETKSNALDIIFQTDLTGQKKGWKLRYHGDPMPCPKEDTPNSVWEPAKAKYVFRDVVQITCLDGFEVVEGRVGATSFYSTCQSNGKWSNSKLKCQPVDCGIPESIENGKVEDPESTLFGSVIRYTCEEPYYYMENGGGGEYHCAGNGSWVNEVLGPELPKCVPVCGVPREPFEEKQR
Briefly: Human C1s Enzyme Assay. The class given is biochemical. The conditions noted are these: human C1s 1.16 nM, 5 min preincubation, substrate Z-L-Lys-SBzl 100 μM, A405; read-out: C1s Protease Activity. An outline of the steps: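 IC50 values were fitted by nonlinear regression to rates measured as A405 every 30 s for 30 min. The thioester substrate Z-L-Lys-SBzl and Ellman's reagent were each at 100 μM. Serum-derived C1s at 1.16 nM final had 5 min of room-temperature preincubation with compound (pH 7.5 Tris buffer, 1 M NaCl).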
For the compound `N=C(N)c1csc(CNC(=O)[C@@H]2C[C@@]3(CN2C(=O)CNC(=O)CCCOc2ccccc2)CC3(F)F)c1` [Compound 56, (3S,6S)-N-((4-carbamimidoylthiophen-2-yl)methyl)-1,1-difluoro-5-((4-phenoxy-butanoyl)glycyl)-5-azaspiro[2.4]heptane-6-carboxamide], the IC50 is under 100 nM. Regarding `CC(COc1ccccc1)CC(=O)NCC(=O)N1CC2(C[C@H]1C(=O)NCc1cc(C(=N)N)cs1)OCCO2` (stereo partly drawn) [Compound 70, (8S)-N-((4-carbamimidoylthiophen-2-yl)methyl)-7-((3-methyl-4-phenoxybutanoyl)glycyl)-1,4-dioxa-7-azaspiro[4.4]nonane-8-carboxamide], the IC50 was under 100 nM. Next, `C[C@@]12C[C@@H]1N(C(=O)CNC(=O)c1ccccc1Oc1ccccc1)[C@H](C(=O)NCc1cc(C(=N)N)cs1)C2` [Compound 145, (1S,3S,5S)-N-((4-carbamimidoylthiophen-2-yl)methyl)-5-methyl-2-((2-phenoxybenzoyl)glycyl)-2-azabicyclo[3.1.0]hexane-3-carboxamide]: under 100 nM; `N=C(N)c1csc(CNC(=O)[C@@H]2C[C@](F)(CN)CN2C(=O)CNC(=O)CCCOc2ccccc2)c1` [Compound 109, (2S,4S)-4-(aminomethyl)-N-((4-carbamimidoylthiophen-2-yl)methyl)-4-fluoro-1-((4-phenoxybutanoyl)glycyl)pyrrolidine-2-carboxamide]: under 100 nM. Next, `N=C(N)c1csc(CNC(=O)[C@@H]2C[C@]3(CN2C(=O)CNC(=O)CCCOc2ccccc2)CC3(F)F)c1` [Compound 57, (3R,6S)-N-((4-carbamimidoylthiophen-2-yl)methyl)-1,1-difluoro-5-((4-phenoxy-butanoyl)glycyl)-5-azaspiro[2.4]heptane-6-carboxamide]: under 100 nM; `Cc1ccc(OCCCC(=O)NCC(=O)N2CC3(C[C@H]2C(=O)NCc2cc(C(=N)N)cs2)OCCO3)cc1` [Compound 64, (S)-N-((4-carbamimidoylthiophen-2-yl)methyl)-7-((4-(p-tolyloxy)butanoyl)glycyl)-1,4-dioxa-7-azaspiro[4.4]nonane-8-carboxamide]: under 100 nM; `COC[C@@H](NC(=O)[C@@H]1C[C@@H](OC(F)F)CN1C(=O)CNC(=O)c1ccc(Oc2ccccc2)cc1)c1cc(C(=N)N)cs1` [Compound 213, (2S,4R)-N-((R)-1-(4-carbamimidoylthiophen-2-yl)-2-methoxyethyl)-4-(difluoromethoxy)-1-((4-phenoxybenzoyl)glycyl)pyrrolidine-2-carboxamide]: over 1000 nM. Regarding `CO[C@H]1[C@@H](C(=O)NCc2cc(C(=N)N)cs2)N(C(=O)CNC(=O)CCCOc2ccccc2)C[C@@H]1F` [Compound 113, (2S,3S,4S)-N-((4-carbamimidoylthiophen-2-yl)methyl)-4-fluoro-3-methoxy-1-((4-phenoxybutanoyl)glycyl)pyrrolidine-2-carboxamide], the IC50 lay within 100 to 1000 nM. In the case of `CS[C@@H]1C[C@@H](C(=O)NCc2cc(C(=N)N)cs2)N(C(=O)CNC(=O)c2ccc(Oc3ccccc3)cc2)C1` [Compound 45, (2S,4R)-N-((4-carbamimidoylthiophen-2-yl)methyl)-4-(methylthio)-1-((4-phenoxy-benzoyl)glycyl)pyrrolidine-2-carboxamide], the IC50 was under 100 nM. As for `CO/C(=N/C#N)c1csc(CNC(=O)[C@@H]2C[C@]3(C)C[C@@H]3N2C(=O)CNC(=O)c2ccc(Oc3ccccc3)cc2)c1` [Compound 31, methyl (E)-N-cyano-5-(((1S,3S,5S)-5-methyl-2-((4-phenoxybenzoyl)glycyl)-2-azabicyclo[3.1.0]hexane-3-carboxamido)methyl)thiophene-3-carbimidate], the figure is over 1000 nM.

As for `C[C@@]12C[C@@H]1N(C(=O)CNC(=O)c1ccc(Oc3ccccc3)cc1)[C@H](C(=O)NCc1ccc3onc(N)c3c1)C2` [Compound 67, (1S,3S,5S)-N-((3-aminobenzo[d]isoxazol-5-yl)methyl)-5-methyl-2-((4-phenoxy-benzoyl)glycyl)-2-azabicyclo[3.1.0]hexane-3-carboxamide], the IC50 is over 1000 nM. On to `C[C@@]12C[C@@H]1N(C(=O)CNC(=O)c1ccc(Oc3ccccc3)cc1)[C@H](C(=O)NCc1cc(-c3noc(=O)[nH]3)cs1)C2` [Compound 34, (1S,3S,5S)-5-methyl-N-((4-(5-oxo-4,5-dihydro-1,2,4-oxadiazol-3-yl)thiophen-2-yl)methyl)-2-((4-phenoxybenzoyl)glycyl)-2-azabicyclo[3.1.0]hexane-3-carboxamide], for which the IC50 was over 1000 nM.

For the compound `N=C(N)c1csc(CNC(=O)[C@@H]2C[C@H](c3ccc(F)cc3)CN2C(=O)CNC(=O)CCCOc2ccccc2)c1` [Compound 159, (2S,4R)-N-((4-carbamimidoylthiophen-2-yl)methyl)-4-(4-fluorophenyl)-1-((4-phenoxybutanoyl)glycyl)pyrrolidine-2-carboxamide], the IC50 is under 100 nM. For `C[C@@]12C[C@@H]1N(C(=O)CNC(=O)CCCOc1ccccc1C(=O)O)[C@H](C(=O)NCc1cc(C(=N)N)cs1)C2` [Compound 186, 2-(4-((2-((1S,3S,5S)-3-(((4-carbamimidoylthiophen-2-yl)methyl)carbamoyl)-5-methyl-2-azabicyclo[3.1.0]hexan-2-yl)-2-oxoethyl)amino)-4-oxobutoxy)benzoic acid], the IC50 was under 100 nM.

For the compound `C[C@@]12C[C@@H]1N(C(=O)CNC(=O)c1ccc(Oc3ccccc3)cc1)[C@H](C(=O)NCc1cnc(N)s1)C2` [Compound 102, (1S,3S,5S)-N-[(2-amino-1,3-thiazol-5-yl)methyl]-5-methyl-2-{2-[(4-phenoxyphenyl)-formamido]acetyl}-2-azabicyclo[3.1.0]hexane-3-carboxamide], the IC50 lay within 100 to 1000 nM.

Consider `C[C@@]12C[C@@H]1N(C(=O)CNC(=O)c1ccc(Oc3ccccc3)cc1)[C@H](C(=O)Nc1ccc3c(C(=N)N)csc3c1)C2` [Compound 237, (1S,3S,5S)-N-(3-carbamimidoylbenzo[b]thiophen-6-yl)-5-methyl-2-((4-phenoxybenzoyl)glycyl)-2-azabicyclo[3.1.0]hexane-3-carboxamide], for which the IC50 lay within 100 to 1000 nM.

Turning to `CC(=O)ONC(=N)c1csc(CNC(=O)[C@@H]2C[C@]3(C)C[C@@H]3N2C(=O)CNC(=O)c2ccc(Oc3ccccc3)cc2)c1` [Compound 39, (1S,3S,5S)-N-((4-(N-acetoxycarbamimidoyl)thiophen-2-yl)methyl)-5-methyl-2-((4-phenoxybenzoyl)glycyl)-2-azabicyclo[3.1.0]hexane-3-carboxamide], the IC50 lay in the range of 100 to 1000 nM.

Consider `C[C@@]12C[C@@H]1N(C(=O)CNC(=O)c1ccc(Oc3ccccc3)cc1)[C@H](C(=O)NC1CCc3c(C(=N)N)csc3C1)C2` (stereo partly drawn) [Compound 258, (1S,3S,5S)-N-(3-carbamimidoyl-4,5,6,7-tetrahydrobenzo[b]thiophen-6-yl)-5-methyl-2-((4-phenoxybenzoyl)glycyl)-2-azabicyclo[3.1.0]hexane-3-carboxamide], for which the IC50 is over 1000 nM. As to `C[C@@H](NC(=O)[C@@H]1C[C@@]23COCCCCCCCCCCCCc4cc(ccc4Oc4ccc(F)cc4)C(=O)NCC(=O)N1[C@H]2C3)c1cc(C(=N)N)cs1` [Compound 257, (1R,26S,29S)-N-[(1R)-1-(4-carbamimidoylthiophen-2-yl)ethyl]-17-(4-fluorophenoxy)-21,24-dioxo-3-oxa-22,25-diazatetracyclo[23.2.2.1^16,^20.0^1,^26]triaconta-16,18,20(30)-triene-29-carboxamide], the IC50 is over 1000 nM.

Values taken from patent publication US20250171423A1, “PHARMACEUTICAL COMPOUNDS FOR THE TREATMENT OF COMPLEMENT MEDIATED DISORDERS” (Achillion Pharmaceuticals, Inc., priority 2020, published 2025).
